US20120135864A1, “POLLINATION IMPROVER” (TAMINCO, NAAMLOZE VENNOOTSCHAP, priority 2009, published 2012)

Columns and labels:
Type in all cases: in vivo
[1] = tested on: Glycine max (SOYBEAN); assay: Soybean pot trial under glasshouse conditions: seed yield and thousand seed weight; settings: for Seed Yield (%) T1 Timing / Seed Yield (%) T2 Timing: relative to untreated; for Seed Yield (g per Pot) T1 Timing: sprayed at T1 (Growth Stage R1: first flowering); for Seed Yield (g per Pot) T2 Timing: sprayed at T2 (Growth Stage R3)
Experimental: (§1) The applied concentration of the composition of the present invention can vary widely depending on the water volume applied to plants as well as other factors such as plant age and size, and plant sensitivity to the final seed yield and crop quality improver. […] The rate of other components such as spreaders and stickers can be 50-200 ml per ha. The rate of cytokinin can typically be 0.001 to 1.0 percent of the formulation. […] ADD=at least one from class (f) each at <3 g/l, plus at least one from class (c). Winter Barley: […] Harvested: 28 July. […] Harvested: 28 July. Navy Bean: […] Harvested: 28 August. […] Harvested: 28 August. Statistical Layout: Randomised Complete Block trial, under glasshouse conditions, United Kingdom.

[2] = tested on: Winter Barley cv Carat; assay: Winter barley pot trial under glasshouse conditions: grain yield and thousand grain weight; settings: for Grain Yield (%) T1 Timing / Grain Yield (%) T2 Timing: untreated = 100; for Grain Yield (g per Pot) T1 Timing: sprayed at T1 (Growth Stage 52: one quarter ear emergence); for Grain Yield (g per Pot) T2 Timing: sprayed at T2 (Growth Stage 65-69: at time of anthesis)
Experimental: as §1

[3] = tested on: Phaseolus vulgaris (NAVY BEAN) cv Primel; assay: Navy bean pot trial under glasshouse conditions: seed yield and seed weight; settings: for Seed Yield (%) T1 Timing / Seed Yield (%) T2 Timing: relative to untreated; for Seed Yield (g per Pot) T1 Timing: sprayed at T1 (Growth Stage R1: first flowering); for Seed Yield (g per Pot) T2 Timing: sprayed at T2 (Growth Stage R3)
Experimental: as §1

[4] = tested on: Winter Wheat cv Limerick; assay: Winter wheat pot trial under glasshouse conditions: grain yield and thousand grain weight; settings: for Grain Yield (%) T1 Timing / Grain Yield (%) T2 Timing: relative to untreated; for Grain Yield (g per Pot) T1 Timing: sprayed at T1 (Growth Stage 52: one quarter ear emergence); for Grain Yield (g per Pot) T2 Timing: sprayed at T2 (Growth Stage 65-69: at time of anthesis)
Experimental: as §1

[5] = tested on: Winter Wheat (Mean of 3 Varieties); assay: Grain quality improvement pot trial, winter wheat
Source text: (§2) Thousand grain weight, specific weight and % screenings are different aspects of crop quality. For example, specific weight (bushel weight) is the weight of a given volume of grain, expressed in kg/hl. For example, growers have to meet standards of 76 for wheat and 64 for barley in order to meet minimum quality requirements. Varieties with the highest values are those most likely to produce acceptable grain lots. Aspects of crop quality for different varieties of crops are found in The Pocket Guide to Varieties of Cereals, Oilseeds and Pulses (NIAB Association). Other quality standards include, but are not limited to, endosperm texture, protein content (%), Hagberg falling number, Zeleny volume (cc), Chopin Alveograph, malt extract, IBD approval—brewing, IBD approval—distilling, IBD approval—grain distilling, sieving %<2.25 mm, sieving %<2.5 mm, nitrogen content, kernel content, sieving %<2.0 mm, oil content (%), oil type, hilum colour, overseas malting, hot water extract, and seed colour. Examples of % screenings are 2.2 mm and 2.5 mm. Such measures can be used in determining the effect provided by the present invention.
(§3) The TAMPF formulation example in these experiments included AN+AC+ADD, applied at the rate of 1 litre per hectare. ADD=at least one from class (f) each at <3 g/l, plus at least one from class (c).
(§4) Trials information: grown in pots in standard multi-purpose compost of pH 6.5, at 6/7 seeds per 9 cm pot (winter wheat), or 5/6 seeds per 9 cm pot (winter barley). Sprayed at the start of the anthesis growth stage (=shortly after ear emergence: GS60)

[6] = tested on: Winter Barley (Mean of 3 Varieties); assay: Grain quality improvement pot trial, winter barley
Source text: as §2, §3, §4

[7] = sprayed at start of anthesis (GS60)

Structure (SMILES) | Seed Yield (%) T1 Timing ([1]; T1 (Growth Stage R1)) | Seed Yield (%) T2 Timing ([1]; T2 (Growth Stage R3)) | Seed Yield (g per Pot) T1 Timing [1] | Seed Yield (g per Pot) T2 Timing [1] | Grain Yield (%) T1 Timing ([2]; T1 (Growth Stage 52)) | Grain Yield (%) T2 Timing ([2]; T2 (Growth Stage 65-69)) | Grain Yield (g per Pot) T1 Timing [2] | Grain Yield (g per Pot) T2 Timing [2] | Seed Yield (%) T1 Timing ([3]; T1 (Growth Stage R1)) | Seed Yield (%) T2 Timing ([3]; T2 (Growth Stage R3)) | Seed Yield (g per Pot) T1 Timing [3] | Seed Yield (g per Pot) T2 Timing [3] | Grain Yield (%) T1 Timing ([4]; T1 (Growth Stage 52)) | Grain Yield (%) T2 Timing ([4]; T2 (Growth Stage 65-69)) | Grain Yield (g per Pot) T1 Timing [4] | Grain Yield (g per Pot) T2 Timing [4] | also measured
CC(=O)Nc1ccc(O)cc1 [AC, N-(4-hydroxypheyl)acetamide, reference compound] | 101.8% | 101.8% | 33.5 g per Pot | 33.5 g per Pot | 102.8% | 98.8% | 25.5 g per Pot | 24.5 g per Pot | 98.0% | 99.8% | 53.3 g per Pot | 54.3 g per Pot | 98.0% | 103.7% | 29.3 g per Pot | 31.0 g per Pot | –
Nc1ccccc1C(=O)O [AN, anthranilic acid] | 99.7% | 101.2% | 32.8 g per Pot | 33.3 g per Pot | 96.8% | 98.8% | 24.0 g per Pot | 24.5 g per Pot | 102.0% | 98.0% | 55.5 g per Pot | 53.3 g per Pot | 99.7% | 98.7% | 29.8 g per Pot | 29.5 g per Pot | –
O=S(O)(O)=S [Thiosulphate] | 108.8% | 110.3% | 35.8 g per Pot | 36.3 g per Pot | 102.8% | 102.4% | 25.5 g per Pot | 25.4 g per Pot | 108.6% | 109.9% | 59.1 g per Pot | 59.8 g per Pot | 108.4% | 111.7% | 32.4 g per Pot | 33.4 g per Pot | Thousand Seed Weight (g) T1 Timing ([1]; T1 (Growth Stage R1)): 160 g; Thousand Seed Weight (g) T2 Timing ([1]; T2 (Growth Stage R3)): 159 g; % Screenings (2.2 mm) ([5]; sprayed at GS60, 2.2 mm): 4.5%; % Screenings (2.5 mm) ([5]; sprayed at GS60, 2.5 mm): 8.0%; Specific Weight (kg/hl) [5, 7]: 74.0 kg/hl; Thousand Grain Weight (g) T1 Timing ([2]; T1 (Growth Stage 52)): 46.5 g; Thousand Grain Weight (g) T2 Timing ([2]; T2 (Growth Stage 65-69)): 46.4 g; % Screenings (2.2 mm) ([6]; sprayed at GS60, 2.2 mm): 4.8%; % Screenings (2.5 mm) ([6]; sprayed at GS60, 2.5 mm): 7.3%; Specific Weight (kg/hl) [6, 7]: 68.3 kg/hl; Indiv Seed Weight (mg) T1 Timing ([3]; T1 (Growth Stage R1)): 276 mg; Indiv Seed Weight (mg) T2 Timing ([3]; T2 (Growth Stage R3)): 275 mg; Thousand Grain Weight (g) T1 Timing ([4]; T1 (Growth Stage 52)): 50.4 g; Thousand Grain Weight (g) T2 Timing ([4]; T2 (Growth Stage 65-69)): 50.7 g
